Assay results from patent publication US20240043400A1, “Octahydroisoquinolinyl Derivatives” (UCB Biopharma SRL, priority 2020, published 2024).

How the values were obtained:
[1] = target: T1, human GABAA receptor α1β2 and γ2 subunits (Homo sapiens, UniProt P14867+P18507+P47870); experiment: Automated patch clamp studies on the GABAA receptor cells; assay type: cell-based; settings: 15 μM GABA, Table B; for inhibition at 10 µM: CHO-K1, 10 μM compound; for % GABAA inhibition: 10 μM compound, CHO-K1 cells
T1 construct: expressed in transfected cells
T1 sequence (P14867 28-456): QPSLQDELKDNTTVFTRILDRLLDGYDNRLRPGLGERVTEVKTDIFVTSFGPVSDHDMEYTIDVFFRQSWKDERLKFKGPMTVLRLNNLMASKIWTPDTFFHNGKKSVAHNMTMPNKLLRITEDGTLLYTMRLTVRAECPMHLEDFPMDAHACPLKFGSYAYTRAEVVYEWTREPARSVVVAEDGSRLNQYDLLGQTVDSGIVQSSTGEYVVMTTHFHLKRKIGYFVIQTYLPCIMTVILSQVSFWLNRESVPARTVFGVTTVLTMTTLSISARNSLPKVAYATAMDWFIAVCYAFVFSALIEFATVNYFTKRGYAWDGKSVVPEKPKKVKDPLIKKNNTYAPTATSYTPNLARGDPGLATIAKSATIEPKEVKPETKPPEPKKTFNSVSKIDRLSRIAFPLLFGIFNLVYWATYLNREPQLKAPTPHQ
T1 sequence (P47870 25-512 limits assumed): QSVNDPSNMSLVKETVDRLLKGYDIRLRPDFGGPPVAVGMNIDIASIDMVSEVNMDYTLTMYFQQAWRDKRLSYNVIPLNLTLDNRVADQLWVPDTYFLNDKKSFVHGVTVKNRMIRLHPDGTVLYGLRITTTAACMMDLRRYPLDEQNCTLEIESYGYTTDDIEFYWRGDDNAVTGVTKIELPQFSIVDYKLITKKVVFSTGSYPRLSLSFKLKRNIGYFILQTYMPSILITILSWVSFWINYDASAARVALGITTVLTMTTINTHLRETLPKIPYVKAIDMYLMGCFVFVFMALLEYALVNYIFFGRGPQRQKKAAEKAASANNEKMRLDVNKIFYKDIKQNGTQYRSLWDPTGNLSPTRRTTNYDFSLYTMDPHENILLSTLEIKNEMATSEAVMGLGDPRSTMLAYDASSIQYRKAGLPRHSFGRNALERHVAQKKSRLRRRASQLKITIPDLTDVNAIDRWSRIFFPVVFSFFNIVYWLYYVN
T1 sequence (P18507 40-475): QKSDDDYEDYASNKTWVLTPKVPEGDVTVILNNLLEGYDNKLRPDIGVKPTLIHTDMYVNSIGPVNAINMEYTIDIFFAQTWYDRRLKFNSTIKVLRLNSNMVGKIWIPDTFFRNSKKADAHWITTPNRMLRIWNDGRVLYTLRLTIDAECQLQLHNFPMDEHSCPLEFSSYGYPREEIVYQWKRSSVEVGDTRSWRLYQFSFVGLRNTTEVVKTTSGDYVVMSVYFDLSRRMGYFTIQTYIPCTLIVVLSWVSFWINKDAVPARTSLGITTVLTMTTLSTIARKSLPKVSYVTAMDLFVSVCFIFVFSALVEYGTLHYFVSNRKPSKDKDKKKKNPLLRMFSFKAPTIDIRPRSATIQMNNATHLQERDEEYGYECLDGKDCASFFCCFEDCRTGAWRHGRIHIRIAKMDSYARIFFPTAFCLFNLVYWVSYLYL
Protocol: CHO-K1 cells stably expressing human GABAA receptor α1β2 and γ2 subunits were used. The cells were harvested using trypsin and maintained in serum-free medium at room temperature. The cells were washed and re-suspended in extracellular solution before testing.
Experiments on human GABAA (α1β2γ2) channels were conducted using an automated patch clamp assay (lonFlux™ HT). The external solution for recording GABAA currents was composed of sodium chloride 137 mM, potassium chloride 4 mM, calcium chloride 1.8 mM, magnesium chloride 1 mM, HEPES 10 mM, and glucose 10 mM. Both external and internal solutions were titrated with NaOH or KOH to obtain a pH of 7.35 and 7.3, respectively. The internal pipette solution contained potassium fluoride 70 mM, potassium chloride 60 mM, sodium chloride 70 mM, HEPES 5 mM, EGTA 5 mM, and Magnesium ATP 4 mM. The final concentration of vehicle used to dilute compounds was 0.33% DMSO in each well. Bicuculline (0.032 to 100 μM) was used as positive control inhibitor. GABA (15 μM) was used as agonist. All recordings were obtained from a holding potential of −60 mV.
The compound addition sequence was the following: one addition of the EC80 concentration of GABA was added to establish baseline response. Each concentration of compound was applied for 30 seconds followed by the addition of 15 μM GABA in the presence of the compound for 2 seconds. The process was repeated with the next ascending concentration of compound. Peak inward currents in response to the GABA additions in the presence of a single concentration of compound were measured. All compound data have been normalized to the baseline peak current induced by addition of 15 μM GABA for 2 seconds.

CYP3A4 = target: T2, CYP3A4 (Homo sapiens, UniProt P08684); experiment: In vitro assessment of CYP3A4 inhibition potential using cryopreserved human microsomes; assay type: in vitro ADME; settings: 20 μM compound, human microsomes 0.25 mg/ml, Table C; for inhibition at 15 min, 20 μM: human, cryopreserved human microsomes (pooled donors), probe midazolam 2.5 μM (1-hydroxymidazolam formation); for % CYP3A4 inhibition: midazolam 2.5 μM
T2 construct: cryopreserved human microsomes (pooled donors); from tissue
T2 sequence (P08684 whole entry): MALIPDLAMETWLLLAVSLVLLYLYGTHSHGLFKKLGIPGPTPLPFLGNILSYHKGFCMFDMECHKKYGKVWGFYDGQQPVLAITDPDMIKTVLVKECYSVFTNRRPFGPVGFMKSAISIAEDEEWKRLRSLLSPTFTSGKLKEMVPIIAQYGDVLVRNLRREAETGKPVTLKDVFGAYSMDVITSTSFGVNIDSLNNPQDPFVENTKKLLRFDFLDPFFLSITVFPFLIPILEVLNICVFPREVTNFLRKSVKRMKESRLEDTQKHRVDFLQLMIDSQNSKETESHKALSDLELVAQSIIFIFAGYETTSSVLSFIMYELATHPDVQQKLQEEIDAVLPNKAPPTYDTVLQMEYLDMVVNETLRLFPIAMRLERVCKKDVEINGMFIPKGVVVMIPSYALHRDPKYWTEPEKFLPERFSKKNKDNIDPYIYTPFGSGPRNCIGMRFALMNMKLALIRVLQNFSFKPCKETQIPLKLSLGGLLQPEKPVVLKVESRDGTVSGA
Protocol: The objective of the human microsome assay is to characterize the inhibition potential of Compound of formula (I) by measuring the CYP3A4 activities after its co-incubation with midazolam, a specific CYP3A4 substrate.
To this aim, cryopreserved human microsomes (pooled donors) are divided on a 48 well collagen coated plate so that the final concentration is 0.25 mg/ml. The UCB compound is then added in the wells at 20 μM concentration in duplicate. After 30 min incubation, midazolam is added at 2.5 μM concentration. After 15 min, an aliquot is removed and placed into an equal volume of methanol containing internal standard. The samples are centrifuged at 2500 rpm at 4° C. for 20 min. An aliquot of supernatant is diluted with deionised water and levels of 1-hydroxymidazolam is quantified using generic LC MS/MS methods.
The concentrations are compared to those obtained after midazolam incubation at the same concentration but without UCB compound pre-incubation. The results are expressed as % of inhibition.

dopamine D1 receptor = target: T3, dopamine D1 receptor (Homo sapiens, UniProt P21728); experiment: cAMP HTRF potentiation assay (in the presence of dopamine); assay type: cell-based; settings: potentiation of cAMP with [EC20] of dopamine (1.1 nM); LMtk (Ltk−) mouse fibroblast cells expressing the dopamine D1 receptor
T3 construct: host or cells: LMtk (Ltk-) mouse fibroblast cells, kept under Geneticin
T3 sequence (P21728 whole entry): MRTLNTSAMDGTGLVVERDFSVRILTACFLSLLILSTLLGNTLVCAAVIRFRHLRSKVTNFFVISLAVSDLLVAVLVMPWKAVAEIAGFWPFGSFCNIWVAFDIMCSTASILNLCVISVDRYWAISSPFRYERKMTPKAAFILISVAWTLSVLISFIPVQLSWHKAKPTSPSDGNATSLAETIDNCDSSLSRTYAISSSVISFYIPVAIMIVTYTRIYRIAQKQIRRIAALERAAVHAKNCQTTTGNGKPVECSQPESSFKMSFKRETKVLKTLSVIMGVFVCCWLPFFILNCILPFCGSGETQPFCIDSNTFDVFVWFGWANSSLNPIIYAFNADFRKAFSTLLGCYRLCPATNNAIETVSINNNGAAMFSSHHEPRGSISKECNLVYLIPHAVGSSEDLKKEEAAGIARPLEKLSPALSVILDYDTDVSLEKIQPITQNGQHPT
Protocol: The potentiation assay measures the ability of compounds to increase the levels of cAMP produced by a low-threshold concentration of dopamine. The concentration of dopamine used ([EC20]) is designed to produce 20% stimulation compared to the maximal response (100%) seen with increasing the concentration of dopamine. To measure this potentiation we incubate increasing concentrations of the compound with the [EC20] of dopamine and measure the potentiation as increases in cAMP production. The pEC50 of a compound is the −log 10 of the concentration of the compound which produces 50% of the potentiation of the cAMP levels and the Erel is the relative efficacy, defined as the maximal % potentiation produced by the compound compared to the maximal response produced by increasing concentrations of dopamine (Erel of 1=dopamine maximum response).
Cells were cultured at 37° C. in a humidified atmosphere of 5% CO2. Cells were grown in DMEM-F12+GlutaMAX™-1 medium (GIBCO®, Invitrogen, Merelbeke, Belgium) containing 10% fetal bovine serum (BioWhittaker®, Lonza, Verviers, Belgium), 400 μg/mL Geneticin (GIBCO®), 100 IU/mL Penicillin and 100 IU/mL Streptomycin (Pen-Strep solution, BioWhittaker®).
The measurement of changes in intracellular cyclic adenosinemonophopshpate (cAMP) was determined using the HTRF cAMP dynamic assay kit from CisBio (Codolet, France). Using homogenous time-resolved fluoresence technology, the assay is based on competition between native cAMP produced by cells and cAMP labelled with the dye d2. The tracer binding is determined by an anti-cAMP antibody labeled with cryptate. The effects of the compound alone (agonism) was determined by performing the assay in the absence of dopamine, whilst the effect of the compound as a positive allosteric modulator (PAM) was determined in the presence of an EC20 concentration of dopamine. Cells (20,000 per well) are incubated in 384 plates for 1 h at rt in a final volume of 20 μLHBSS (Lonza, with calcium, magnesium and HEPES buffer 20 mM, pH 7.4) containing: isobutyl methylxanthine (Sigma, 0.1 mM final), varying concentrations of test compound (typically 10^−9.5 M to 10^−4.5 M) in the presence and absence of dopamine (1.1 nM final). The reaction is then terminated and the cells lysed by adding the d2 detection reagent in lysis buffer (10 μL) and the cryptate reagent in lysis buffer (10 μL) according to manufacturer's instructions. This is then incubated for a further 60 min at rt and changes in HTRF fluorescent emission ratio determined according to manufacturer's instructions using an Envision plate reader (Perkin Elmer, Zaventem, Belgium) with laser excitation. All incubations were performed in duplicate and results were compared to a concentration-effect curve to dopamine. (10^−11 M to 10^−6 M).
Data was analyzed using Excel and PRISM (GraphPad Software) to obtain pEC50 and Erel using the 4-parameter logistic equation (DeLean et al, 1978) where Erel is the fitted maximal response of the test compound minus basal expressed as a percentage relative to that obtained with dopamine which was defined as 100%.

**Q.** What does the source list for `COc1ccc(C#N)c(CC(=O)N2CC[C@H]3[C@H]([C@H](O)C(F)(F)F)CCC[C@@H]3[C@@H]2C)c1Cl` [Example 1-A, 2-[2-[(1S,4aR,5R,8aS)-1-methyl-5-[(1S)-2,2,2-trifluoro-1-hydroxy-ethyl]-3,4,4a,5,6,7,8,8a-octahydro-1H-isoquinolin-2-yl]-2-oxo-ethyl]-3-chloro-4-methoxybenzonitrile]?
**A.** inhibition at 10 µM [1]: 11.2%; inhibition at 15 min, 20 μM (CYP3A4): 60 to 70%; EC50 (dopamine D1 receptor): 0.0316 µM

**Q.** `C[C@H]1[C@H]2CCC[C@@H]([C@H](O)C(F)(F)F)[C@@H]2CCN1C(=O)Cc1c(Cl)ccc2nnc(Cl)n12` [Example 11, 1-[(1 S,4aR,5R,8aS)-1-methyl-5-[(1 S)-2,2,2-trifluoro-1-hydroxy-ethyl]-3,4,4a,5,6,7,8,8a-octahydro-1H-isoquinolin-2-yl]-2-(3,6-dichloro-[1,2,4]triazolo[4,3-a]pyridin-5-yl)ethanone] was tested. Which inhibition at 10 µM [1] did it give?
**A.** 6%

**Q.** And the inhibition at 15 min, 20 μM (CYP3A4)?
**A.** 70 to 80%

**Q.** And the EC50 (dopamine D1 receptor)?
**A.** 0.0631 µM

**Q.** Which results are given for `COc1ccc(C#N)c(CC(=O)N2CC[C@@H]3[C@H](CCC[C@H]3C(O)C(F)F)[C@@H]2C)c1Cl` (single isomer, unassigned) [Example 6-B]?
**A.** % GABAA inhibition [1]: 10.9%; % CYP3A4 inhibition (CYP3A4): ++++ (A percentage of inhibition greater than about 20% and lower than or equal to about 40% is indicated by ++++.); EC50 (dopamine D1 receptor): 0.2 µM

**Q.** Which results are given for `COc1ncc(Cl)c(CC(=O)N2CC[C@H]3[C@H]([C@H](O)C(F)(F)F)CCC[C@@H]3[C@@H]2C)c1Cl` [Example 3, 1-[(1S,4aR,5R,8aS)-1-methyl-5-[(1S)-2,2,2-trifluoro-1-hydroxy-ethyl]-3,4,4a,5,6,7,8,8a-octahydro-1H-isoquinolin-2-yl]-2-(3,5-dichloro-2-methoxypyridin-4-yl)ethanone]?
**A.** inhibition at 10 µM [1]: 13.8%; inhibition at 15 min, 20 μM (CYP3A4): 60 to 70%; EC50 (dopamine D1 receptor): 0.0251 µM

**Q.** How did the “% GABAA inhibition” value [1] turn out when `CC(O)c1ncc(Cl)c(CC(=O)N2CC[C@H]3[C@H]([C@H](O)C(F)(F)F)CCC[C@@H]3[C@@H]2C)c1Cl` (single isomer, unassigned) [Example 9-A] was run?
**A.** −14.1%

**Q.** What about the inhibition at 15 min, 20 μM (CYP3A4) of the same compound?
**A.** 20 to 40%

**Q.** What about the EC50 (dopamine D1 receptor) of the same compound?
**A.** 0.0398 µM

**Q.** What does the source list for `C[C@H]1[C@H]2CCC[C@@H]([C@H](O)C(F)(F)F)[C@@H]2CCN1C(=O)Cc1c(Cl)cnc(C(C)(C)O)c1Cl` [Example 13, 1-[(1S,4aR,5R,8aS)-1-methyl-5-[(1S)-2,2,2-trifluoro-1-hydroxy-ethyl]-3,4,4a,5,6,7,8,8a-octahydro-1H-isoquinolin-2-yl]-2-[3,5-dichloro-2-(1-hydroxy-1-methyl-ethyl)-4-pyridyl]ethanone]?
**A.** inhibition at 10 µM [1]: -8%; inhibition at 15 min, 20 μM (CYP3A4): 20 to 40%; EC50 (dopamine D1 receptor): 0.0501 µM

**Q.** Which “% GABAA inhibition” value [1] does the source give for `COc1ccc(C#N)c(CC(=O)N2CC[C@@H]3[C@H](CCC[C@H]3C(C)(O)C(F)(F)F)[C@@H]2C)c1Cl` (single isomer, unassigned) [Example 7-A] here?
**A.** 7.4%

**Q.** What about the inhibition at 15 min, 20 μM (CYP3A4) of the same compound?
**A.** 20 to 40%

**Q.** What about the EC50 (dopamine D1 receptor) of the same compound?
**A.** 0.251 µM

**Q.** How did the “% GABAA inhibition” value [1] turn out when `CC(O)c1ncc(Cl)c(CC(=O)N2CC[C@H]3[C@H]([C@H](O)C(F)(F)F)CCC[C@@H]3[C@@H]2C)c1Cl` (single isomer, unassigned) [Example 9-B] was run?
**A.** −8.4%

**Q.** And the “% CYP3A4 inhibition” value (CYP3A4)?
**A.** ++++ (A percentage of inhibition greater than about 20% and lower than or equal to about 40% is indicated by ++++.)

**Q.** And the EC50 (dopamine D1 receptor)?
**A.** 0.0251 µM

**Q.** Which inhibition at 10 µM [1] does the source give for `C[C@H]1[C@H]2CCC[C@@H]([C@H](O)C(F)(F)F)[C@@H]2CCN1C(=O)Nc1c(Cl)cccc1Cl` [Example 10, (1S,4aR,5R,8aS)—N-(2,6-dichlorophenyl)-1-methyl-5-[(1S)-2,2,2-trifluoro-1-hydroxy-ethyl]-3,4,4a,5,6,7,8,8a-octahydro-1H-isoquinoline-2-carboxamide] here?
**A.** 8.5%

**Q.** What about the inhibition at 15 min, 20 μM (CYP3A4) of the same compound?
**A.** 20 to 40%

**Q.** And the EC50 (dopamine D1 receptor)?
**A.** 0.0126 µM

**Q.** For `C[C@H]1[C@H]2CCCC([C@@H](O)C(F)(F)F)[C@@H]2CCN1C(=O)Cc1c(Cl)ccc2c1c(Cl)nn2C` (single isomer, unassigned) [Example 8-B], which “% GABAA inhibition” value [1] is on record?
**A.** −1.2%

**Q.** And the “% CYP3A4 inhibition” value (CYP3A4)?
**A.** +++ (A percentage of inhibition greater than about 40% and lower than or equal to about 60% is indicated by +++.)

**Q.** What about the EC50 (dopamine D1 receptor) of the same compound?
**A.** 0.126 µM

**Q.** With `COc1ccc(C#N)c(CC(=O)N2CC[C@H]3[C@H]([C@@H](O)C(F)(F)F)CCC[C@@H]3[C@@H]2C)c1Cl` [Example 1-B, 2-[2-[(1S,4aR,5R,8aS)-1-methyl-5-[(1R)-2,2,2-trifluoro-1-hydroxy-ethyl]-3,4,4a,5,6,7,8,8a-octahydro-1H-isoquinolin-2-yl]-2-oxo-ethyl]-3-chloro-4-methoxybenzonitrile] as the compound, how does the inhibition at 10 µM [1] read?
**A.** 4.9%

**Q.** What about the inhibition at 15 min, 20 μM (CYP3A4) of the same compound?
**A.** 40 to 60%

**Q.** What about the EC50 (dopamine D1 receptor) of the same compound?
**A.** 0.398 µM

**Q.** Which results are given for `C[C@H]1[C@H]2CCCC([C@@H](O)C(F)(F)F)[C@@H]2CCN1C(=O)Cc1c(Cl)ccc2c1c(Cl)nn2C` (single isomer, unassigned) [Example 8-A]?
**A.** % GABAA inhibition [1]: 2.0%; inhibition at 15 min, 20 μM (CYP3A4): 20 to 40%; EC50 (dopamine D1 receptor): 0.0794 µM

**Q.** `C[C@H]1[C@H]2CCC[C@@H]([C@H](O)C(F)(F)F)[C@@H]2CCN1C(=O)Cc1c(Cl)cnc(CO)c1Cl` [Example 12, 1-[(1S,4aR,5R,8aS)-1-methyl-5-[(1 S)-2,2,2-trifluoro-1-hydroxy-ethyl]-3,4,4a,5,6,7,8,8a-octahydro-1H-isoquinolin-2-yl]-2-[3,5-dichloro-2-(hydroxymethyl)-4-pyridyl]ethanone] was tested. Which inhibition at 10 µM [1] did it give?
**A.** 9.6%

**Q.** And the inhibition at 15 min, 20 μM (CYP3A4)?
**A.** 20 to 40%

**Q.** What about the EC50 (dopamine D1 receptor) of the same compound?
**A.** 0.0158 µM

**Q.** For `COc1ccc(C#N)c(CC(=O)N2CC[C@@H]3[C@H](CCC[C@H]3C(O)C(F)F)[C@@H]2C)c1Cl` (single isomer, unassigned) [Example 6-A], which inhibition at 10 µM [1] is on record?
**A.** 8.6%

**Q.** What about the inhibition at 15 min, 20 μM (CYP3A4) of the same compound?
**A.** 20 to 40%

**Q.** What about the EC50 (dopamine D1 receptor) of the same compound?
**A.** 0.0501 µM
